Laboratory results from patent US20250188088A1, “COMPOUND AND USE THEREOF” (ONQUALITY PHARMACEUTICALS CHINA LTD., priority 2022, published 2025).
Converted amounts (≈) assume the structure as drawn. Like-named read-outs stand apart in the source and are kept apart here.

What was measured:
[1] = Thermodynamic solubility assay (PBS pH 6.5; isopropyl myristate); format: physicochemical; settings: thermodynamic from solid
Protocol: Thermodynamic Solubility Assay
Weigh not less than 2 mg of the sample powder into a Whatman Mini-UniPrep vial. If it is required to test the thermodynamic solubility of samples in multiple buffers, a separate vial is needed for each test; add 450 μL of buffer to each Whatman Mini-UniPrep vial, respectively; after that, install the piston cap of Whatman Mini-UniPrep and press it above the liquid level, so that the filter is in contact with the buffer during shaking; shake the solubility sample by vortexing for 1 minute.
Inject 3 UV standard solutions from low to high concentrations into the HPLC, then inject the diluent and supernatant of the test compound, with two replicates of test sample; and integrate the UV peaks. Simulate a standard curve and calculate the thermodynamic solubility of the sample.

[2] = Log D measurement (n-octanol/PBS shake, LC-MS/MS); format: physicochemical; settings: pH 7.4, read-out: LogD7.4 (Oct/buff)
Protocol: Two replicates of test compounds (DMSO stock solution 10 mM, 2 μL/well) and QCs (DMSO 10 mM, 2 μL/well) were transferred from the storage tube to a 96-well cluster tube. Add buffer-saturated n-octanol ([…]) and n-octanol-saturated PBS (149 μL/well) to each well; vortex mix the cluster tube for 1 minute, mix by shaking on a plate shaker at 880 rpm for one hour, and then centrifuge at 4000 rpm for 10 minutes. Remove the cover pad, accurately measure a certain amount of n-octanol layer samples (4 μL/well) into a 96-well plate containing n-octanol internal standard diluent (796 μL/well); accurately measure a certain amount of buffer salt layer samples (30 μL/well) into a 96-well plate containing buffer internal standard diluent (570 μL/well); the dilution factor of the sample can be adjusted according to different properties of the sample. Samples were analyzed using a triple quadrupole mass spectrometer. The processed sample solution was analyzed by the fast isocratic elution and small column retention method, the concentration correction was carried out by dilution factor and internal standard, and the ratio of the corrected peak area was used to calculate the final result (Log D/Log P value).

[3] = tested on: rash caused by small molecule EGFR inhibitors; assay: Prevention of rash caused by small molecule EGFR inhibitors, topical ointment, rat model; format: in vivo, SD rats
From the text: An Experiment to Verify the Prevention of Rash Caused by Small Molecule EGFR Inhibitors with Topical Administration of Compounds of the Present Application on a Rat Animal Model A rat animal model was established. After daily gavage of a small molecule EGFR inhibitor to female SD rats for […], the rats developed extensive rashes on their backs several days later (picture shown in FIG. 1). […] Similar to humans, rats developed skin rashes on their faces and bodies after oral administration of small molecule EGFR inhibitors. Both of them had the same etiology and very similar symptoms. Therefore, rats are a proper animal model for mimicking EGFR inhibitor-induced rash. After the SD rats were fed and adapted for one week (about 200 g), the rats were divided into 10 rats per group. The hair on the back of rats was gently removed with an electric razor one day before the experiment, and then an intragastric administration test was carried out. EGFR inhibitors were dissolved in a sterile aqueous solution, and diluted with PBS buffer; the amount of each gavage was not more than 2 mL, and the dosage was shown in Table 1. The experiment comprised the administration group and the control group. After intragastric administration, apply the ointment (type and concentration are shown in Table 1) of the compound used in the present application to the backs (about 3 cm*3 cm) of rats in the administration group; apply blank matrix ointment (about 0.5 g) to the backs (about 3 cm*3 cm) of rats in the control group; fix the rats with a fixed cylinder for about 4 hours after drug application, release the rats after 4 hours, wipe off the residual drug at the application site with clean water, and put them back into the cage. The frequency of intragastric administration of EGFR inhibitors is shown in Table 1, but the compounds of the present application and blank matrix ointment are applied only once a day. The intragastric administration and application test were repeated daily until an obvious rash appeared in the control group. […] Table 1 lists the animal experiment combination of various small molecule EGFR inhibitors and the compound ointment of the present application, as well as the corresponding experiment results (wherein, the value in the control rate column=the number of rats whose rash is milder in the administration group than that in the control group/the total number of rats in the administration group×100%).

[4] = tested on: rash caused by monoclonal EGFR inhibitors; assay: Prevention of rash caused by monoclonal EGFR inhibitors, topical ointment, rat model; format: in vivo, SD rats
Protocol: An Experiment to Verify the Prevention of Rash Caused by Monoclonal EGFR Inhibitors with Topical Administration of Compounds of the Present Application on a Rat Animal Model After the SD rats were fed and adapted for one week (about 200 g), the rats were divided into 10 rats per group. The hair on the back of rats was gently removed with an electric razor one day before the experiment, and then an administration test was carried out. The experiments were divided into the administration group with the compound of the present application and the control group. The EGFR monoclonal antibody solution diluted with normal saline was injected via the tail vein twice a week, and the injection rate and time are shown in Table 2. After injection, the administration group applied the compound ointment of the present application on the backs (about 3 cm*3 cm) of rats every day, and the control group applied blank matrix ointment (about 0.5 g) to the backs (about 3 cm*3 cm) of rats every day. After drug application, the rats were fixed with a fixed cyclinder for 4 h; after that, the rats were released and the residual drug at the application site was wiped off with clear water. Monoclonal antibody EGFR inhibitors were injected via the tail vein twice a week, and the compound of the present application and blank ointment were applied once a day until obvious rashes appeared in the control group. […] Table 2 lists the animal experiment combinations of various monoclonal antibody EGFR inhibitors and the compound ointment of the present application, as well as the corresponding experiment results (wherein, the value in the control rate column=the number of rats whose rash is milder in the administration group than that in the control group/the total number of rats in the administration group×100%).

[5] = tested on: skin contact delayed-type hypersensitivity; assay: Skin contact delayed-type hypersensitivity (DNFB) response test, ear swelling, topical ointment; format: in vivo; settings: topical to ears, DNFB DTH, Balb/c mice, compared to blank ointment
From the text: Therapeutic Effect of Topical Administration of Compounds of the Present Application in Skin Contact Delayed-Type Hypersensitivity Response Test in Mice Delayed-type hypersensitivity (DTH) response in mouse skin is considered to be an effective model for clinical contact dermatitis and other T cell-mediated cutaneous immune diseases, such as atopic dermatitis and psoriasis. The DTH in mice shares the common features with these cutaneous immune diseases, including immunoinfiltration with an increase of inflammatory cytokines and hyperproliferation of keratinocytes. Balb/c mice were sensitized by topical administration of the antigen 2,4-dinitrofluorobenzene (DNFB) to the shaved back of mice on Days 0 and 1. On Day 5, the thickness of the ears was measured using an engineering micrometer. The measurement result was recorded and used as a baseline. The animals were then challenged with a total of 20 μL of DNFB (10 μL for the internal pinna and 10 μL for the external pinna) topically dosed to both ears at a concentration of 0.2%. The ears were measured again 24-72 hours after challenge. The compound ointment of the present application was applied topically to the ears of the animals throughout the allergic and challenge periods (Days −1˜7) or before or throughout the challenge period (generally Days 4˜7). The therapeutic effect was expressed by a reduction in ear swelling compared to that of the blank ointment. The compound causing a reduction of 20% or more was considered effective. Table 5 lists the skin contact delayed-type hypersensitivity experiment results in mice treated with the compound of the present application.

[6] = Plasma stability, human plasma; format: in vitro ADME, Humans; settings: 37° C.
[7] = Plasma stability, mini pig plasma; format: in vitro ADME, Mini Pigs; settings: 37° C.
[8] = aqueous buffer, PBS buffer pH 6.5, about 25° C., read-out: Thermodynamic Solubility pH = 6.5
[9] = oil or lipid, isopropyl myristate as vehicle, about 25° C., read-out: Thermodynamic Solubility in Isopropyl Myristate

CCCCCC(=O)OCCN(C)C(=O)n1ccc2c(N(C)[C@H]3CN(C(=O)CC#N)CC[C@H]3C)ncnc21 [Compound A9]
solubility thermodynamic at 24 h [1, 8]: 234 µg/mL (≈ 457 µM) | solubility thermodynamic at 24 h [1, 9]: 1380 µg/mL (≈ 2690 µM) | logD [2]: 1.69

CCC(CC)C(=O)OCCN(C)C(=O)n1ccc2c(N(C)[C@H]3CN(C(=O)CC#N)CC[C@H]3C)ncnc21 [Compound A10]
solubility thermodynamic at 24 h [1, 8]: 233 µg/mL (≈ 456 µM) | solubility thermodynamic at 24 h [1, 9]: 1830 µg/mL (≈ 3580 µM) | logD [2]: 2.07

CCC(C)C(=O)OCCN(C)C(=O)n1ccc2c(N(C)[C@H]3CN(C(=O)CC#N)CC[C@H]3C)ncnc21 (stereo partly drawn) [Compound A11]
solubility thermodynamic at 24 h [1, 8]: 170 µg/mL (≈ 341 µM) | solubility thermodynamic at 24 h [1, 9]: 1590 µg/mL (≈ 3200 µM) | logD [2]: 1.87

CCCC(CC)C(=O)OCCN(C)C(=O)n1ccc2c(N(C)[C@H]3CN(C(=O)CC#N)CC[C@H]3C)ncnc21 (stereo partly drawn) [Compound A12]
solubility thermodynamic at 24 h [1, 8]: 16 µg/mL (≈ 30.4 µM) | solubility thermodynamic at 24 h [1, 9]: 339 µg/mL (≈ 646 µM) | logD [2]: 2.72 | Control Rate ([3]; Afatinib 40 mg/kg once a day, ointment 1.0 wt% once a day, 14 days): 60% | Control Rate ([3]; Afatinib 40 mg/kg once a day, ointment 3.0 wt% once a day, 14 days): 75% | Control Rate ([3]; Afatinib 40 mg/kg once a day, ointment 5.0 wt% once a day, 14 days): 90% | Control Rate ([3]; EAI045 80 mg/kg once a day, ointment 1.0 wt% once a day, 11 days): 60% | Control Rate ([3]; EAI045 80 mg/kg once a day, ointment 10.0 wt% once a day, 11 days): 70% | Control Rate ([3]; Erlotinib 70 mg/kg once a day, ointment 0.3 wt% once a day, 14 days): 20% | Control Rate ([3]; Erlotinib 70 mg/kg once a day, ointment 3.0 wt% once a day, 14 days): 50% | Control Rate ([3]; Osimertinib 60 mg/kg twice a day, ointment 0.3 wt% once a day, 10 days): 50% | Control Rate ([3]; Osimertinib 60 mg/kg twice a day, ointment 5.0 wt% once a day, 10 days): 80% | Control Rate ([4]; Cetuximab 100 mg/kg twice a week via tail vein, ointment 0.3 wt% once a day, 10 days): 20% | Control Rate ([4]; Cetuximab 100 mg/kg twice a week via tail vein, ointment 3.0 wt% once a day, 10 days): 70% | Control Rate ([4]; Cetuximab 100 mg/kg twice a week via tail vein, ointment 10.0 wt% once a day, 10 days): 85% | Control Rate ([4]; Panitumumab 10 mg/kg twice a week via tail vein, ointment 1.0 wt% once a day, 14 days): 50% | Control Rate ([4]; Panitumumab 10 mg/kg twice a week via tail vein, ointment 5.0 wt% once a day, 14 days): 60% | Control Rate ([4]; Panitumumab 10 mg/kg twice a week via tail vein, ointment 10.0 wt% once a day, 14 days): 60%

COCCOCC(=O)OCCN(C)C(=O)n1ccc2c(N(C)[C@H]3CN(C(=O)CC#N)CC[C@H]3C)ncnc21 [Compound A18]
solubility thermodynamic at 24 h [1, 8]: > 4840 µg/mL | solubility thermodynamic at 24 h [1, 9]: 54.7 µg/mL (≈ 103 µM) | Reduction Rate of Ear Swelling ([5]; ointment 0.1 wt%): 23% | Reduction Rate of Ear Swelling ([5]; ointment 1.0 wt%): 29% | Reduction Rate of Ear Swelling ([5]; ointment 5.0 wt%): 37% | Reduction Rate of Ear Swelling ([5]; ointment 10.0 wt%): 45% | half-life at 2 µM [6]: 1.9 min | % Retained ([6]; 0 min): 100.0% | % Retained ([6]; 10 min): 2.6% | % Retained ([6]; 30 min): 0.0% | % Retained ([6]; 60 min): 0.0% | % Retained ([6]; 120 min): 0.0% | logD [2]: 0.23 | Control Rate ([3]; BPI-7711 60 mg/kg once a day, ointment 3.0 wt% once a day, 14 days): 70% | Control Rate ([3]; EAI045 80 mg/kg once a day, ointment 0.3 wt% once a day, 11 days): 30% | Control Rate ([3]; EAI045 80 mg/kg once a day, ointment 3.0 wt% once a day, 11 days): 70% | Control Rate ([3]; EAI045 80 mg/kg once a day, ointment 5.0 wt% once a day, 11 days): 90% | Control Rate ([3]; Zorifertinib 60 mg/kg once a day, ointment 3.0 wt% once a day, 12 days): 60% | half-life at 2 µM [7]: 9.1 min | % Retained ([7]; 0 min): 100.0% | % Retained ([7]; 10 min): 57.3% | % Retained ([7]; 30 min): 13.5% | % Retained ([7]; 60 min): 1.3% | % Retained ([7]; 120 min): 0.0%

CCC(=O)OCCN(C)C(=O)n1ccc2c(N(C)[C@H]3CN(C(=O)CC#N)CC[C@H]3C)ncnc21 [Compound A20]
solubility thermodynamic at 24 h [1, 8]: 2430 µg/mL (≈ 5180 µM) | solubility thermodynamic at 24 h [1, 9]: 779 µg/mL (≈ 1660 µM) | logD [2]: 0.97
